Laboratory results: patent publication US7902252B2, “Inhibitors of D-amino acid oxidase” (Sepracor, Inc., priority 2007, dated 2011)

target: Human DAAO (Homo sapiens, UniProt P14920); assay: D-Amino Acid Oxidase enzyme assay (D-serine, horseradish peroxidase/Amplex Red coupled fluorescence); type: biochemical; conditions: D-serine 5 mM, pH 7.4
Method: DAAO enzyme activity was measured using the substrate D-serine at its Michaelis-Menton Km of 5 mM. The rate of oxidation is measured as a rate of production of hydrogen peroxide, which was detected using the enzyme horseradish peroxidase (Sigma cat. No. P-8375). This coupled reaction uses the enzyme substrate Amplex Red (Molecular Probes), which is converted to the fluorescent reaction product, resorufin (excitation 530-560 nm; emission ˜590 nm). Although DAAO has a higher pH optimum, all reagents were prepared in 50 mM sodium phosphate buffer at pH 7.4 and inhibition curves were generated at this pH.
The final concentrations of components in 200 μl total volume per well (black clear-bottom 96-well plate, Costar) were:
(a) Horseradish peroxidase: 4 Units per mL
(d) Amplex Red reagent: 50 uM
The reactions were initiated by addition of DAAO enzyme and the fluorescence was monitored. H2O2 was added at 16 uM final concentration to a control well on each plate to test for compound interference with a coupled enzyme. Inhibition curves were generated in the presence of varying concentrations of the inhibitor and IC50 values were calculated for each inhibitor.

Chain of Human DAAO (P14920 whole entry): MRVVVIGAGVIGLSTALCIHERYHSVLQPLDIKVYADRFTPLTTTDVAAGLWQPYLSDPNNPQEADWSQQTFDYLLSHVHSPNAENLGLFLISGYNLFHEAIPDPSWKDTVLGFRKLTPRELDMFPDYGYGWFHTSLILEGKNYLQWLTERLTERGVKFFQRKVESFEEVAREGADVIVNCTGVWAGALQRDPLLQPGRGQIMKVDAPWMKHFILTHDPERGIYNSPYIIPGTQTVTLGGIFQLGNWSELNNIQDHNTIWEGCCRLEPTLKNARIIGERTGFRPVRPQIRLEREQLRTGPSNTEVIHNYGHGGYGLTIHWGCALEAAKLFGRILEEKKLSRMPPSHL

Row | SMILES | IC50
1 | O=C(O)c1cc2c([nH]1)CCC2Cc1cccc(-c2ccc(O)cc2)c1 (stereo not shown) [Compound 85, 4-((4′-hydroxybiphenyl-3-yl)methyl)-1,4,5,6-tetrahydrocyclopenta[b]pyrrole-2-carboxylic acid] | ≤ 100 µM
2 | Cc1ccc(C2CCc3cc(C(=O)O)[nH]c32)cc1 (stereo not shown) [Compound 116, 6-p-tolyl-1,4,5,6-tetrahydrocyclopenta[b]pyrrole-2-carboxylic acid] | ≤ 1 µM
3 | O=C(O)c1cc2c([nH]1)CCC2Cc1cccc(-c2ccco2)c1 (single isomer, unassigned) [Compound 88, 4-(3-(furan-2-yl)benzyl)-1,4,5,6-tetrahydrocyclopenta[b]pyrrole-2-carboxylic acid] | ≤ 100 µM
4 | COc1cccc(CC2CCc3[nH]c(C(=O)O)cc32)c1 (racemic) [Compound 66, 4-(3-methoxybenzyl)-1,4,5,6-tetrahydrocyclopenta[b]pyrrole-2-carboxylic acid] | ≤ 0.1 µM
5 | CCCC1CCc2[nH]c(C(=O)O)cc21 (racemic) [Compound 7, 4-propyl-1,4,5,6-tetrahydrocyclopenta[b]pyrrole-2-carboxylic acid] | ≤ 0.1 µM
6 | O=C(O)c1cc2c([nH]1)C(Cc1ccccc1)CC2 (stereo not shown) [Compound 26, 6-benzyl-1,4,5,6-tetrahydrocyclopenta[b]pyrrole-2-carboxylic acid] | ≤ 0.1 µM
7 | O=C(O)c1cc2c([nH]1)C(c1cccc(Cl)c1)CC2 (stereo not shown) [Compound 114, 6-(3-chlorophenyl)-1,4,5,6-tetrahydrocyclopenta[b]pyrrole-2-carboxylic acid] | ≤ 1 µM
8 | O=C(O)c1cc2c([nH]1)CC1CC21 (single isomer, unassigned) [Compound 139, 1a,4,5,5a-tetrahydro-1H-4-aza-cyclopropa[α]pentalene-3-carboxylic acid] | ≤ 1 µM
9 | O=C(O)c1cc2c([nH]1)C(Cc1cccc(Cl)c1)CC2 (single isomer, unassigned) [Compound 122, 6-(3-chlorobenzyl)-1,4,5,6-tetrahydrocyclopenta[b]pyrrole-2-carboxylic acid] | ≤ 1 µM
10 | O=C(O)c1cc2c([nH]1)CCC2CCc1ccccc1 (single isomer, unassigned) [Compound 19, 4-phenethyl-1,4,5,6-tetrahydrocyclopenta[b]pyrrole-2-carboxylic acid] | ≤ 1 µM
11 | O=C(O)c1cc2c([nH]1)C(CCc1ccccc1)CC2 (single isomer, unassigned) [Compound 28, 6-phenethyl-1,4,5,6-tetrahydrocyclopenta[b]pyrrole-2-carboxylic acid] | ≤ 1 µM
12 | COc1cccc(CC2CCc3cc(C(=O)O)[nH]c32)c1 (racemic) [Compound 129, 6-(3-methoxybenzyl)-1,4,5,6-tetrahydrocyclopenta[b]pyrrole-2-carboxylic acid] | ≤ 0.1 µM
13 | O=C(O)c1cc2c([nH]1)C(CCCc1ccccc1)CC2 (racemic) [Compound 134, 6-(3-phenylpropyl)-1,4,5,6-tetrahydrocyclopenta[b]pyrrole-2-carboxylic acid] | ≤ 1 µM
14 | O=C(O)c1cc2c([nH]1)CCC2Cc1ccc(Br)cc1 (racemic) [Compound 60, 4-(4-bromobenzyl)-1,4,5,6-tetrahydrocyclopenta[b]pyrrole-2-carboxylic acid] | ≤ 0.1 µM
15 | O=C(O)c1cc2c([nH]1)C[C@@H]1[C@@H](c3ccccc3)[C@H]21 (racemic) [Compound 144, ±(1R,1aR,5aR)-1-phenyl-1a,4,5,5a-tetrahydro-1H-4-aza-cyclopropa[α]pentalene-3-carboxylic acid] | ≤ 100 µM
16 | O=C(O)c1cc2c([nH]1)CCC2Cc1cccc(-c2ccc[nH]2)c1 (single isomer, unassigned) [Compound 92, 4-(3-(1H-pyrrol-2-yl)benzyl)-1,4,5,6-tetrahydrocyclopenta[b]pyrrole-2-carboxylic acid] | ≤ 100 µM
17 | O=C(O)c1cc2c([nH]1)C(c1cccc(Br)c1)CC2 (stereo not shown) [Compound 115, 6-(3-bromophenyl)-1,4,5,6-tetrahydrocyclopenta[b]pyrrole-2-carboxylic acid] | ≤ 1 µM
18 | O=C(O)c1cc2c([nH]1)CC(Cc1ccccc1)C2 (stereo not shown) [Compound 23, 5-benzyl-1,4,5,6-tetrahydrocyclopenta[b]pyrrole-2-carboxylic acid] | ≤ 100 µM
19 | N#Cc1cccc(C2CCc3cc(C(=O)O)[nH]c32)c1 (stereo not shown) [Compound 117, 6-(3-cyanophenyl)-1,4,5,6-tetrahydrocyclopenta[b]pyrrole-2-carboxylic acid] | ≤ 1 µM
20 | O=C(O)c1cc2c([nH]1)C(c1ccc(-c3ccccc3)cc1)CC2 (single isomer, unassigned) [Compound 120, 6-(biphenyl-4-yl)-1,4,5,6-tetrahydrocyclopenta[b]pyrrole-2-carboxylic acid] | > 100 µM
21 | O=C(O)c1cc2c([nH]1)C(c1ccc(Cl)cc1)CC2 (stereo not shown) [Compound 113, 6-(4-chlorophenyl)-1,4,5,6-tetrahydrocyclopenta[b]pyrrole-2-carboxylic acid] | ≤ 1 µM
22 | O=C(O)c1cc2c([nH]1)CCC2=O [Compound 2, 4-oxo-1,4,5,6-tetrahydrocyclopenta[b]pyrrole-2-carboxylic acid] | ≤ 100 µM
23 | O=C(O)c1cc2c([nH]1)CCC2Cc1cccc(-c2ccccc2)c1 (stereo not shown) [Compound 82, 4-(biphenyl-3-ylmethyl)-1,4,5,6-tetrahydrocyclopenta[b]pyrrole-2-carboxylic acid] | ≤ 1 µM
24 | O=C(O)c1cc2c([nH]1)C(=Cc1ccccc1)CC2 (mixture of isomers) [Compound 25, (E/Z)-6-benzylidene-1,4,5,6-tetrahydrocyclopenta[b]pyrrole-2-carboxylic acid] | ≤ 100 µM
25 | COC1c2cc(C(=O)O)[nH]c2CC1(F)F (stereo not shown) [Compound 148, 5,5-difluoro-4-methoxy-1,4,5,6-tetrahydrocyclopenta[b]pyrrole-2-carboxylic acid] | ≤ 100 µM
26 | CC(C)(CC1CCc2[nH]c(C(=O)O)cc21)c1ccccc1 (stereo not shown) [Compound 35, 4-(2-methyl-2-phenylpropyl)-1,4,5,6-tetrahydrocyclopenta[b]pyrrole-2-carboxylic acid] | ≤ 100 µM

Other lines, results leading:

Row | IC50 | SMILES
27 | ≤ 100 µM | O=C(O)c1cc2c([nH]1)CCC2Cc1ccc(F)c(F)c1 (single isomer, unassigned) [Compound 43, 4-(3,4-difluorobenzyl)-1,4,5,6-tetrahydrocyclopenta[b]pyrrole-2-carboxylic acid]
28 | ≤ 0.1 µM | O=C(O)c1cc2c([nH]1)CCC2Cc1ccc(F)cc1 (single isomer, unassigned) [Compound 40, 4-(4-fluorobenzyl)-1,4,5,6-tetrahydrocyclopenta[b]pyrrole-2-carboxylic acid]
29 | ≤ 0.1 µM | O=C(O)c1cc2c([nH]1)CCC2c1cccc(Br)c1 (stereo not shown) [Compound 103, 4-(3-bromophenyl)-1,4,5,6-tetrahydrocyclopenta[b]pyrrole-2-carboxylic acid]
30 | ≤ 100 µM | CC1CCc2[nH]c(C(=O)O)cc21 (single isomer, unassigned) [Compound 6, 4-methyl-1,4,5,6-tetrahydrocyclopenta[b]pyrrole-2-carboxylic acid]
31 | ≤ 0.1 µM | O=C(O)c1cc2c([nH]1)CCC2Cc1ccc(Cl)c(Cl)c1 (racemic) [Compound 57, 4-(3,4-dichlorobenzyl)-1,4,5,6-tetrahydrocyclopenta[b]pyrrole-2-carboxylic acid]
32 | ≤ 100 µM | O=C(O)c1cc2c([nH]1)CCC2Cc1ccc(Cl)c(Cl)c1 (single isomer, unassigned) [Compound 58, 4-(3,4-dichlorobenzyl)-1,4,5,6-tetrahydrocyclopenta[b]pyrrole-2-carboxylic acid]
33 | ≤ 0.1 µM | O=C(O)c1cc2c([nH]1)CCC2Cc1cccc(Br)c1 (racemic) [Compound 63, 4-(3-bromobenzyl)-1,4,5,6-tetrahydrocyclopenta[b]pyrrole-2-carboxylic acid]
34 | ≤ 100 µM | O=C(O)c1cc2c([nH]1)CCC2c1cc(F)cc(F)c1 (single isomer, unassigned) [Compound 99, 4-(3,5-difluorophenyl)-1,4,5,6-tetrahydrocyclopenta[b]pyrrole-2-carboxylic acid]
35 | ≤ 0.1 µM | O=C(O)c1cc2c([nH]1)CCC2c1ccc(Cl)cc1 (stereo not shown) [Compound 101, 4-(4-chlorophenyl)-1,4,5,6-tetrahydrocyclopenta[b]pyrrole-2-carboxylic acid]
36 | ≤ 1 µM | Cc1ccc(CC2CCc3[nH]c(C(=O)O)cc32)cc1C (stereo not shown) [Compound 71, 4-(3,4-dimethylbenzyl)-1,4,5,6-tetrahydrocyclopenta[b]pyrrole-2-carboxylic acid]
37 | ≤ 1 µM | CC(C)CC1CCc2[nH]c(C(=O)O)cc21 (stereo not shown) [Compound 11, 4-isobutyl-1,4,5,6-tetrahydrocyclopenta[b]pyrrole-2-carboxylic acid]
38 | ≤ 1 µM | O=C(O)c1cc2c([nH]1)CCC2c1cc(F)cc(F)c1 (racemic) [Compound 98, 4-(3,5-difluorophenyl)-1,4,5,6-tetrahydrocyclopenta[b]pyrrole-2-carboxylic acid]
39 | ≤ 0.1 µM | O=C(O)c1cc2c([nH]1)CCC2Cc1cccc(Cl)c1 (stereo not shown) [Compound 56, 4-(3-chlorobenzyl)-1,4,5,6-tetrahydrocyclopenta[b]pyrrole-2-carboxylic acid]
40 | ≤ 100 µM | O=C(O)c1cc2c([nH]1)CCC2Cc1ccc(F)cc1F (single isomer, unassigned) [Compound 46, 4-(2,4-difluorobenzyl)-1,4,5,6-tetrahydrocyclopenta[b]pyrrole-2-carboxylic acid]
